Experimental findings from ChEMBL document CHEMBL4433219, “EC18 as a Tool To Understand the Role of HCN4 Channels in Mediating Hyperpolarization-Activated Current in Tissues” (ACS Med Chem Lett, 2019) are described below.

Assay [1] concerns the target T1, Potassium/sodium hyperpolarization-activated cyclic nucleotide-gated channel 2 (Mus musculus, UniProt O88703).
T1 sequence (O88703 whole entry): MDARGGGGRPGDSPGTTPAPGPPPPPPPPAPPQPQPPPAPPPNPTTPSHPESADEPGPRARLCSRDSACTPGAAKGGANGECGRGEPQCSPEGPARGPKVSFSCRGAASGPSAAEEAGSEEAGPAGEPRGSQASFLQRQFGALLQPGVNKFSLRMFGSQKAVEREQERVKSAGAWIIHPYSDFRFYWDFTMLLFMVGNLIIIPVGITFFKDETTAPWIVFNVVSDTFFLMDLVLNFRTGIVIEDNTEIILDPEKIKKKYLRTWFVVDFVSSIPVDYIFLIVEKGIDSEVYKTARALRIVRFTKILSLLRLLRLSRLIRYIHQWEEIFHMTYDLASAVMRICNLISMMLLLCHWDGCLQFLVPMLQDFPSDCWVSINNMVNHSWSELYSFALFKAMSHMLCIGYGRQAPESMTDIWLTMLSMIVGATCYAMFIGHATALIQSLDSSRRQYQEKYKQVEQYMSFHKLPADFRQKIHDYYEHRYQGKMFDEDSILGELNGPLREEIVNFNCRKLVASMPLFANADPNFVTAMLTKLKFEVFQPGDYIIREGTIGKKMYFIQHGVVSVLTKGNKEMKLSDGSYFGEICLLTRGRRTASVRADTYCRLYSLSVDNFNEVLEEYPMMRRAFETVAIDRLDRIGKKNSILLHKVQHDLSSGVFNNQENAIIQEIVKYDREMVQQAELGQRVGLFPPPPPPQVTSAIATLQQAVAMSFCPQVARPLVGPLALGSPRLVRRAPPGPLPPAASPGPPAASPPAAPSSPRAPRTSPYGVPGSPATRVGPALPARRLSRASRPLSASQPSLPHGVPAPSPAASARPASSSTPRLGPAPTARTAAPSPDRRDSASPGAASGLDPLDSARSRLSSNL
The assay is described as follows: Inhibition of mouse HCN2 expressed in HEK293 cells assessed as reduction in hyperpolarization activated current at holding potential of -80 mV by patch clamp assay. The assay is classed as cell-based.

For assay [2], the species on record is Cavia porcellus. The assay is described as follows: Inhibition of HCN4 in guinea pig single sinoatrial node assessed as reduction in hyperpolarization activated current at 10 uM at holding potential of -120 mV by patch clamp assay relative to control.
For assay [3], the system named is Cardiac muscle of left ventricle. Nature of the assay: Effect on cardiac electrophysiological profile in Mongrel perfused dog heart left ventricular muscle stimulated at basic cycle length of 1000 milliseconds assessed as conduction time at 1 uM measured after 25 mins by glass capillary microelectrode based electrophysiology assay (reference value: 4.8 +/- 0.60 milliseconds). The assay is classed as functional, Canis lupus familiaris.

For assay [4] the test system is unchanged. The assay is described as follows: Effect on cardiac electrophysiological profile in Mongrel perfused dog heart left ventricular muscle stimulated at basic cycle length of 1000 milliseconds assessed as conduction time at 10 uM measured after 25 mins by glass capillary microelectrode based electrophysiology assay (reference value: 4.8 +/- 0.60 milliseconds). Type of assay: functional, Canis lupus familiaris.

The test system is the same in assay [5]. Nature of the assay: Effect on cardiac electrophysiological profile in Mongrel perfused dog heart left ventricular muscle stimulated at basic cycle length of 1000 milliseconds assessed as Vmax at 10 uM measured after 25 mins by glass capillary microelectrode based electrophysiology assay (reference value: 244.6 +/- 30.87 V/s). Type of assay: functional, Canis lupus familiaris.

The test system is the same in assay [6]. Nature of the assay: Effect on cardiac electrophysiological profile in Mongrel perfused dog heart left ventricular muscle stimulated at basic cycle length of 1000 milliseconds assessed as action potential time duration at 75% of repolarization at 1 uM measured after 25 mins by glass capillary microelectrode based electrophysiology assay (reference value: 199.7 +/- 16.87 milliseconds). Type of assay: functional, Canis lupus familiaris.

For assay [7] the test system is unchanged. The assay is described as follows: Effect on cardiac electrophysiological profile in Mongrel perfused dog heart left ventricular muscle stimulated at basic cycle length of 1000 milliseconds assessed as action potential time duration at 50% of repolarization at 1 uM measured after 25 mins by glass capillary microelectrode based electrophysiology assay (reference value: 176 +/- 16.36 milliseconds). Type of assay: functional, Canis lupus familiaris.

Assay [8] addresses T2, Potassium/sodium hyperpolarization-activated cyclic nucleotide-gated channel 4 (Mus musculus, UniProt O70507).
T2 sequence (O70507 whole entry): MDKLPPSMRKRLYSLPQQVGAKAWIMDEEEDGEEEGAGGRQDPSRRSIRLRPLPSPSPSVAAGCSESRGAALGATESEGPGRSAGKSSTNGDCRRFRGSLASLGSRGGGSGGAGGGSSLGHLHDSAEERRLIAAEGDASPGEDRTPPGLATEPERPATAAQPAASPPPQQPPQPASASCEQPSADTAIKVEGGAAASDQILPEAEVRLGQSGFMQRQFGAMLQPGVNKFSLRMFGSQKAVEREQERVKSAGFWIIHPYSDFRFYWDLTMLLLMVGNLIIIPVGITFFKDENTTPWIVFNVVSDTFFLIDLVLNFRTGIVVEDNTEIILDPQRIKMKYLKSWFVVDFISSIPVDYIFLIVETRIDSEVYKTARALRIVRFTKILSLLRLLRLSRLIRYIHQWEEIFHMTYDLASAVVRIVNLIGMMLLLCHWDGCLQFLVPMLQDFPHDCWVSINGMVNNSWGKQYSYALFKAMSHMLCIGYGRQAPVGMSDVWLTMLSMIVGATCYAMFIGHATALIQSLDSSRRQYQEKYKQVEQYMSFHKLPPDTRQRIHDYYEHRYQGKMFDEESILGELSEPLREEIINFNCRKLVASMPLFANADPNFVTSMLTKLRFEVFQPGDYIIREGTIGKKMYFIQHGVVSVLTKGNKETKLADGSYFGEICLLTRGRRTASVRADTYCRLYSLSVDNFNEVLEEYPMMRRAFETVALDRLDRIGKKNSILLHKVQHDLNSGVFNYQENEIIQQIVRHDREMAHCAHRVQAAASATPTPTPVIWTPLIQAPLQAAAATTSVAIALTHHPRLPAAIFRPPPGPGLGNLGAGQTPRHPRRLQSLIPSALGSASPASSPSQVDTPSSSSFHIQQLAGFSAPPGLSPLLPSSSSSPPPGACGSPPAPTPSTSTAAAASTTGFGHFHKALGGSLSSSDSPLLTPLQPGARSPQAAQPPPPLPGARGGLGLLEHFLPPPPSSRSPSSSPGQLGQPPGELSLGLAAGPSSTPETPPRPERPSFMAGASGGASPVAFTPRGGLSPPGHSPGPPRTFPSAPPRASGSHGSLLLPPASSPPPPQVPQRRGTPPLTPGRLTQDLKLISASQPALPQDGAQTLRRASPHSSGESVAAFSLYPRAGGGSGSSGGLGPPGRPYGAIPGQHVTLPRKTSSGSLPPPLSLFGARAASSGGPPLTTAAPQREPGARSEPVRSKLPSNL
Nature of the assay: Inhibition of HCN4 in C57BL/6J mouse thalamocortical relay neuron assessed as reduction in hyperpolarization current at holding potential of -120 mV by whole-cell patch clamp assay. For orientation: In patch-clamp work, channel activity is measured electrically.

Assay [9] is filed under the species Mus musculus. The assay is described as follows: Effect on transient A type potassium channel in C57BL/6J mouse thalamocortical relay neuron assessed as effect on early transient current at 10 uM by whole cell patch clamp assay relative to control.

SMILES strings stand for the structures. pEC50: −log10 of the molar value. Active and inactive are the calls of the source. The calls are words filed in the database; no cut-off is given here.

As to `COc1ccc(CCN(C)[C@@H]2CCC[C@H](N3CCc4cc(OC)c(OC)cc4CC3=O)C2)cc1OC` (racemic), the values for the pEC50 in [1] and in assay [8] were 4.71 and 4.96, respectively. Moreover, in assay [2], the inhibition was found to be 67%. For the same compound, the Time in [3] turned out to be 4.7 ms; in [4], 5 ms; in [6] it was 191.9 ms; in [7] it was 168.3 ms. Moreover, the Activity in assay [5] is 140.6 V/s. In assay [9], the result was inactive.

In general, pEC50 refers to the negative decadic logarithm of the EC50, by convention in mol/L. One may read the inhibition as the relative decrease from the control value, in per cent.
